Results: patent publication US5770604A, “Aconitine compound and an antipyretic/analgesic/anti-inflammatory agent” (priority 1994, dated 1998)

Columns and labels:
Type in all cases: in vivo, mice (Std:ddY, male)
[1] = tested on: carrageenin-induced paw edema; assay: Antiinflammatory activity by the carrageenin-induced hind paw edema; conditions: mouse, 30 mg/kg p.o., mean ± standard error, n = 6
Experimental: Measurement of Antiinflammatory Activity by the Carrageenin-Induced Hind Paw Edema
Std:ddY Strain male mice (20-25 g) were fasted for one day before the experiment, and were used. After test compounds shown in Table 1 was formed to a salt with tartaric acid, this salt was dissolved in sterilized and distilled water at the rate of 30 mg/10 ml to give the test compound solution. As a control, sterilized and distilled water was used. One hour after the oral administration of test compound solutions, 25 μl of λ-carrageenin suspended in 0.9% physiological saline solution (0.5 mg/25 μl) was injected s.c. under the plantar surface of the right hind paw of a mouse and 25 μl of 0.9% physiological saline solution was injected s.c. under the plantar surface of the left hind paw of the same mouse. Three hours and five hours after carrageenin injection, the […] of the paw was measured with a dial gauge calliper. To the control group, One hour after the oral administration of sterilized and distilled water at the rate of 10 ml/kg, 25 μl of λ-carrageenin (0.5 mg/25 μl) suspended in 0.9% physiological saline solution was injected s.c. under the plantar surface of the right hind paw of a mouse and 25 μl of 0.9% physiological saline solution was injected s.c. under the plantar surface of the left hind paw of the same mouse and the later operation was done in the same manner as in the test compound dosing group mentioned above. The results were described as a swelling rate (%) obtained from the following equation.
Swelling rate (%)=(R-L)×100/L
R: the thickness of the right hind paw
L: the thickness of the left hind paw

[2] = tested on: nociceptive response (licking); assay: Analgesic activity by the hot-plate method; conditions: mouse, 52° C. plate, solution 10 mg/10 ml, mean ± standard error
Experimental: Measurement of Analgesic Activity by the Hot-Plate Method
Std:ddY Strain male mice (20-25 g) were fasted for one day before the experiment, and were used. After compounds shown in Table 1 were formed to the tartaric acid salts, these compounds were dissolved in 0.9% physiologocal saline solution at the rate of 10 mg/10 ml, respectively and these solution were used as test compound solution. In a control, 0.9% physiological saline solution was used. Mice were placed on a cyrindric hot plate (diameter: 22 cm, height: 11 cm) made of copper which was fixed in a water bath adjusted to 52° C. so that each animal's four paws came into contact with the plate and the time taken to show the nociceptive response (licking) as an index of pain was measured. Mice showing response latency above 25 seconds were excluded from the experiment. To prevent a burn damage of mouse tissue by heating, cutoff time of 50 seconds was defined. The results were described as an inhibition rate (%) obtained from the following equation.
Inhibition rate (%)=(A-B)×100/(50-B)
A: Response latency (seconds) after the administration of test compound solution
B: Response latency (seconds) before the administration of test compound solution

[3] = tested on: pain threshold (tail-pressure); assay: Analgesic activity by the tail-pressure method (s.c.); conditions: mouse, 10 mg/10 ml at 10 ml/kg s.c., 1 hour after administration, mean ± standard error
Experimental: (1) Measurement of Analgesic Activity by the Tail-Pressure Method
Std:ddY Strain male mice (20-25 g) were fasted for one day before the experiment, and were used. After test compounds shown in Table 1 was formed to a salt with tartaric acid, this salt was dissolved in 0.9% physiological saline solutions at the rate of 10 mg/10 ml to give the test compoun d solution . As a control, 0.9% physiological saline solution was used. A tail-pressure apparatus was used in this experiments. Before the administration of test compounds, the pain threshold was measured twice at intervals of 30 minutes and those mice indicating a pain threshold of 50 to 100 mmHg were selected and used. The pain threshold of each mouse was measured at 1 hour after test compound solution mentioned above was administered at 10 ml/kg, s.c. 0.9% Physiological saline solution as a control was administered at 10 ml/kg, s.c . The results were described as an inhibition rate (%) obtained from the following equation. Cutoff level of pressure was defined to be 230 mmHg for the prevention of the damage of mouse tail.
Inhibition rate (%)=(A-B)×100/(C-B)
A: Pain threshold (mmHg) after the administration of test compound solution
B: Pain threshold (mmHg) before the administration of test compound solution
C: Cutoff pressure (230 mmHg)

[4] = tested on: pain threshold (tail-pressure); assay: Tail-pressure method, experiment combined with morphine antagonist (levallorphan); conditions: mean ± standard error
Experimental: (4) Experiment Combined with Morphine Antagonist
Std:ddY Strain male mice (20-25 g) were fasted for one day before the experiment, and were used. In this experiment, the tartaric acid salt of a compound of number (2) in Table 1, morphine hydrochloride and levallorphan hydrochloride of an opioid antagonist were used. The tartaric acid salt of a compound of number (2) was dissolved in 0.9% physiological saline solution at the rate of 10 mg/2 ml. Morphine hydrochloride was dissolved in 0.9% physiological saline solution at the rate of 10 mg/2 ml. Levallorphan hydrochloride was dissolved in 0.9% physiological saline solution at the rate of 1 mg/10 ml. As a control, 0.9% physiological saline solution was used. A tail-pressure apparatus was used in this experiments. Before the administration of levallorphan hydrochloride, the pain threshold was measured twice at intervals of 30 minutes and those mice indicating a pain threshold of 50 to 100 mmHg were selected and used. Levallorphan hydrochloride solution mentioned above was administered s.c. at the rate of 10 ml/kg and, 30 minutes later, the above tartaric acid salt solution compound of number (2) or morphine hydrochloride solution was injected i.v. at the rate of 2 ml/kg, respectively. Each pain threshold was measured 10, 20 and 30 minutes after an intravenous injection. In control group, 0.9% physiological saline solution was injected i.v. at the rate of 2 ml/kg at 30 minutes after s.c. administration at 10 ml/kg of 0.9% physiological saline solution. In the single administration group of levallorphan hydrochloride, levallorphan hydrochloride solution mentioned above was administered s.c. at the rate of 10 ml/kg and, 30 minutes later, 0.9% physiological saline solution was injected i.v. at the rate of 2 ml/kg. The results were described in Table 10 as an inhibition rate (%) indicating in the preceding paragraph (1).

[5] = tested on: pain threshold (tail-pressure); assay: Tail-pressure method, experiment combined with morphine administration; conditions: mean ± standard error, n = 7
Experimental: (3) Experiment Combined with Morphine Administration
Std:ddY Strain male mice (20-25 g) were fasted for one day before the experiment, and were used. In this experiment, the tartaric acid salt of a compound of number (2) in Table 1 and morphine hydrochloride were used. The tartaric acid salt of a compound of number (2) was dissolved in 0.9% physiological saline solution at the rate of 7 mg/10 ml. Morphine hydrochloride was dissolved in 0.9% physiological saline solution at the rates of 5 mg/2 ml, 3 mg/2 ml and 1 mg/2 ml. As a control, 0.9% phisiological saline solution was used. A tail-pressure apparatus was used in this experiments. Before the administration of test compounds, the pain threshold was measured twice at intervals of 30 minutes and those mice indicating a pain threshold of 50 to 100 mmHg were selected and used. Mice was divided in the following four groups, (i) control group, (ii) the administration group of the tartaric acid salt of a compound of number (2), (iii) the administration group of morphine hydrochloride and (iv) the combined administration group with the tartaric acid salt of a compound of number (2) and morphine hydrochloride. In the administration group of the tartaric acid salt of a compound of number (2), 0.9% physiological saline solution of this tartaric acid salt mentioned above was injected s.c. at the rate of 10 ml/kg and, 30 minutes later, 0.9% physiological saline solution was injected i.v. at the rate of 2 ml/kg. In the administration group of morphine hydrochloride, 0.9% physiological saline solution was injected s.c. at the rate of 10 ml/kg and, 30 minutes later, the above physiological saline solution of morphine hydrochloride was injected i.v. at the rate of 2 ml/kg. In the combined administration group with the tartaric acid salt of a compound of number (2) and morphine hydrochloride,the above physiological saline solution of the tartaric acid salt of a compound of number (2) was injected s.c. at the rate of 10 ml/kg and, 30 minutes later, the above physiological saline solution of morphine hydrochloride was injected i.v. at the rate of 2 ml/kg. In control group, 0.9% physiological saline solution was injected s.c. at the rate of 10 ml/kg and, 30 minutes later, 0.9% physiological saline solution was injected i.v. at the rate of 2 ml/kg. Each pain threshold was measured 10, 20 and 30 minutes after an intravenous injection. The results were described in Table 9 as an inhibition rate (%) indicating in the preceding paragraph (1).

[6] = tested on: pain threshold (tail-pressure); assay: Tail-pressure method, comparison with morphine (i.v.); conditions: mean ± standard error
Experimental: (2) Comparison with Morphine
Std:ddY Strain male mice (20-25 g) were fasted for one day before the experiment, and were used. In this experiment, the tartaric acid salt of a compound of number (2) in Table 1 and morphine hydrochloride as a possitive control were used. This tartaric acid salt was dissolved in 0.9% physiological saline solution at the rates of 5 mg/2 ml, 3 mg/2 ml and 1 mg/2 ml. Morphine hydrochloride was dissolved in 0.9% physiological saline solution at the rates of 5 mg/2 ml, 3 mg/2 ml and 1 mg/2 ml. As a negative control, 0.9% phisiological saline solution was used. A tail-pressure apparatus was used in this experiments. Before the administration of test compounds, the pain threshold was measured twice at intervals of 30 minutes and those mice indicating a pain threshold of 50 to 100 mmHg were selected and used. The pain threshold of each mouse was measured at 10, 20 and 30 minutes after test compound solution mentioned above was administered at 2 ml/kg, i.v. 0.9% Physiological saline solution as a control was administered i.v. The results were described as an inhibition rate (%) indicating in the preceding paragraph (1).

15-O-acetyl-8-deoxy-14-O-p-chlorobenzoylaconine [(8)]
Swelling rate ([1]; 3 hour): 41 ± 5%
Swelling rate ([1]; 5 hour): 55 ± 8%
Inhibition rate (hot-plate method) [2]: 48 ± 8%
Inhibition rate (tail-pressure method) [3]: 26 ± 7%

15-O-acetyl-8-deoxy-14-O-p-chlorobenzoylmesaconine [(7)]
Swelling rate ([1]; 3 hour): 43 ± 8%
Swelling rate ([1]; 5 hour): 48 ± 8%
Inhibition rate (hot-plate method) [2]: 49 ± 11%
Inhibition rate (tail-pressure method) [3]: 35 ± 10%

15-O-acetyl-8-deoxy-16-epi-14-O-p-chlorobenzoylaconine [(10)]
Swelling rate ([1]; 3 hour): 49 ± 6%
Swelling rate ([1]; 5 hour): 49 ± 11%
Inhibition rate (hot-plate method) [2]: 40 ± 10%
Inhibition rate (tail-pressure method) [3]: 23 ± 7%

15-O-acetyl-8-deoxy-16-epi-14-O-p-chlorobenzoylmesaconine [(9)]
Swelling rate ([1]; 3 hour): 44 ± 7%
Swelling rate ([1]; 5 hour): 56 ± 7%
Inhibition rate (hot-plate method) [2]: 46 ± 7%
Inhibition rate (tail-pressure method) [3]: 31 ± 12%

C=CCN1CC[C@]23CCCC[C@H]2[C@H]1Cc1ccc(O)cc13 [levallorphan]
Inhibition rate ([4]; levallorphan 1 mg/kg s.c. alone, 10 min after i.v. injection): 3 ± 4%
Inhibition rate ([4]; levallorphan 1 mg/kg s.c. alone, 20 min after i.v. injection): -3 ± 4%
Inhibition rate ([4]; levallorphan 1 mg/kg s.c. alone, 30 min after i.v. injection): 1 ± 3%

CN1CC[C@]23c4c5ccc(O)c4O[C@H]2[C@@H](O)C=C[C@H]3[C@H]1C5 [morphine, reference compound]
Inhibition rate ([5]; morphine 1 mg/kg i.v. alone, 10 min): 2 ± 2%
Inhibition rate ([5]; morphine 1 mg/kg i.v. alone, 20 min): 3 ± 4%
Inhibition rate ([5]; morphine 1 mg/kg i.v. alone, 30 min): 1 ± 2%
Inhibition rate ([5]; morphine 3 mg/kg i.v. alone, 10 min): 11 ± 8%
Inhibition rate ([5]; morphine 3 mg/kg i.v. alone, 20 min): 15 ± 9%
Inhibition rate ([5]; morphine 3 mg/kg i.v. alone, 30 min): 10 ± 6%
Inhibition rate ([5]; morphine 5 mg/kg i.v. alone, 10 min): 36 ± 10%
Inhibition rate ([5]; morphine 5 mg/kg i.v. alone, 20 min): 32 ± 11%
Inhibition rate ([5]; morphine 5 mg/kg i.v. alone, 30 min): 26 ± 8%
Inhibition rate ([4]; 10 mg/kg i.v., with levallorphan 1 mg/kg s.c. 30 minutes before, 10 min): 10 ± 1%
Inhibition rate ([4]; 10 mg/kg i.v., with levallorphan 1 mg/kg s.c. 30 minutes before, 20 min): 10 ± 7%
Inhibition rate ([4]; 10 mg/kg i.v., with levallorphan 1 mg/kg s.c. 30 minutes before, 30 min): 20 ± 6%
Inhibition rate ([4]; 10 mg/kg i.v., without levallorphan, 10 min): 70 ± 13%
Inhibition rate ([4]; 10 mg/kg i.v., without levallorphan, 20 min): 73 ± 9%
Inhibition rate ([4]; 10 mg/kg i.v., without levallorphan, 30 min): 65 ± 12%
Inhibition rate ([6]; 1 mg/kg i.v., 10 minutes): 1 ± 2%
Inhibition rate ([6]; 1 mg/kg i.v., 20 minutes): 2 ± 2%
Inhibition rate ([6]; 1 mg/kg i.v., 30 minutes): 2 ± 1%
Inhibition rate ([6]; 3 mg/kg i.v., 10 minutes): 13 ± 7%
Inhibition rate ([6]; 3 mg/kg i.v., 20 minutes): 18 ± 10%
Inhibition rate ([6]; 3 mg/kg i.v., 30 minutes): 12 ± 8%
Inhibition rate ([6]; 5 mg/kg i.v., 10 minutes): 38 ± 12%
Inhibition rate ([6]; 5 mg/kg i.v., 20 minutes): 30 ± 10%
Inhibition rate ([6]; 5 mg/kg i.v., 30 minutes): 29 ± 12%
